In patent publication US20050112573A1, “Method of detecting toxic substance” (priority 2001, published 2005):

Test system: yeast genes (level of expressed mRNA)
Assay: DNA chip analysis of expressed mRNA of yeast genes after 2 h culture with a toxic chemical substance
Type: cell-based, Saccharomyces cerevisiae S288C
Settings: for The level of expressed mRNA in the presence of chemical substance/ (ratio to absence of chemical substance): stress protein genes, DNA chip
How it was run: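 S. cerevisiae S288C grown at 25° C in YPD; toxicant added at log phase at growth-inhibitory, non-lethal levels for 2 h, untreated cells as control. Poly(A) mRNA reverse-transcribed with Cy3/Cy5-dUTP, hybridized to whole-genome chip at 65° C >12 h; value is fluorescence ratio versus untreated.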

CCCCCCCCCCCCOS(=O)(=O)[O-].[Na+] [(18), sodium lauryl sulfate]
The level of expressed mRNA in the presence of chemical substance/absence: YOR267C (gene YOR267C): 1.0
The level of expressed mRNA in the presence of chemical substance/absence: YOR325W (gene YOR325W): 1.0
level of expressed mRNA in the presence of chemical substance/in its absence (gene YOR336W): 1.0
level of expressed mRNA in the presence of chemical substance/in its absence (gene YOR344C): 1.3
level of expressed mRNA in the presence of chemical substance/in its absence (gene YOR347C): 1.3
The level of expressed mRNA in the presence of chemical substance/absence: YPL005W (gene YPL005W): 1.1
level of expressed mRNA in the presence of chemical substance/in its absence (gene YPL017C): 0.8
The level of expressed mRNA in the presence of chemical substance / the level in the absence of chemical substance, yeast gene YPL107W (gene YPL107W, DNA chip fluorescence ratio to control without chemical, 2 hours culture with chemical, growth-inhibiting non-lethal concentration): 1.1
The level of expressed mRNA in the presence of chemical substance / the level in the absence of chemical substance, yeast gene YPL138C (gene YPL138C, DNA chip fluorescence ratio to control without chemical, 2 hours culture with chemical, growth-inhibiting non-lethal concentration): 1.1
The level of expressed mRNA in the presence of chemical substance/absence: YPL150W (gene YPL150W): 1.1
The level of expressed mRNA in the presence of chemical substance/absence: YPL151C (gene YPL151C): 1.0
The level of expressed mRNA in the presence of chemical substance/absence: YPL152W (gene YPL152W): 1.9
The level of expressed mRNA in the presence of chemical substance/absence: YPL168W (gene YPL168W): 1.2
The level of expressed mRNA in the presence of chemical substance/absence: YPL180W (gene YPL180W): 0.9
The level of expressed mRNA in the presence of chemical substance/absence: YPL188W (gene YPL188W): 0.9
The level of expressed mRNA in the presence of chemical substance/absence: YPL221W (gene YPL221W): 1.2
The level of expressed mRNA in the presence of chemical substance/absence: YPL225W (gene YPL225W): 1.7
The level of expressed mRNA in the presence of chemical substance/absence: YPL249C (gene YPL249C): 1.2
The level of expressed mRNA in the presence of chemical substance/absence: YPL260W (gene YPL260W): 1.3
level of expressed mRNA in the presence of chemical substance/in its absence (gene YPL265W): 0.4
level of expressed mRNA in the presence of chemical substance/in its absence (gene YPR006C): 2.1
level of expressed mRNA in the presence of chemical substance/in its absence (gene YPR026W): 1.3
The level of expressed mRNA in the presence of chemical substance/absence: YPR049C (gene YPR049C): 1.1
The level of expressed mRNA in the presence of chemical substance/absence: YPR061C (gene YPR061C): 0.9
The level of expressed mRNA in the presence of chemical substance/absence: YPR093C (gene YPR093C): 1.1
The level of expressed mRNA in the presence of chemical substance/absence: YPR146C (gene YPR146C): 1.1
The level of expressed mRNA in the presence of chemical substance/absence: YPR148C (gene YPR148C): 2.0
The level of expressed mRNA in the presence of chemical substance/absence: YPR150W (gene YPR150W): 1.0
The level of expressed mRNA in the presence of chemical substance/absence: YPR158W (gene YPR158W): 0.7
The level of expressed mRNA in the presence of chemical substance/absence: YPR169W (gene YPR169W): 1.1
The level of expressed mRNA in the presence of chemical substance/absence: YPR172W (gene YPR172W): 1.4
The level of expressed mRNA in the presence of chemical substance/absence: YPR174C (gene YPR174C): 0.9
The level of expressed mRNA in the presence of chemical substance/The level of expressed mRNA in the absence of chemical substance (yeast gene YAR010C): 1.0
The level of expressed mRNA in the presence of chemical substance/The level of expressed mRNA in the absence of chemical substance (yeast gene YBL005W-A): 1.0
The level of expressed mRNA in the presence of chemical substance/ (ratio to absence), gene YBL038W (yeast gene YBL038W, mitochondria-located protein genes, 2 h culture with chemical): 1.9
The level of expressed mRNA in the presence of chemical substance/The level of expressed mRNA in the absence of chemical substance (yeast gene YBL041W): 2.0
The level of expressed mRNA in the presence of chemical substance/The level of expressed mRNA in the absence of chemical substance (yeast gene YBL043W): 1.8
The level of expressed mRNA in the presence of chemical substance/The level of expressed mRNA in the absence of chemical substance (yeast gene YBL078C): 2.8
The level of expressed mRNA in the presence of chemical substance/ (ratio to absence of chemical substance) (yeast gene YBL093C): 1.3
The level of expressed mRNA in the presence of chemical substance/ (in its absence), gene YBR036C (yeast gene YBR036C, ratio of DNA chip fluorescence intensity to that without chemical substance): 1.8
The level of expressed mRNA in the presence of chemical substance/ (ratio to absence of chemical substance) (yeast gene YBR044C): 1.3
The level of expressed mRNA in the presence of chemical substance/ (ratio to absence), gene YBR122C (yeast gene YBR122C, mitochondria-located protein genes, 2 h culture with chemical): 1.5
The level of expressed mRNA in the presence of chemical substance/The level of expressed mRNA in the absence of chemical substance (yeast gene YBR214W): 1.2
The level of expressed mRNA in the presence of chemical substance/ (ratio to absence), gene YBR251W (yeast gene YBR251W, mitochondria-located protein genes, 2 h culture with chemical): 1.4
The level of expressed mRNA in the presence of chemical substance/ (in its absence), gene YBR298C (yeast gene YBR298C, ratio of DNA chip fluorescence intensity to that without chemical substance): 0.8
The level of expressed mRNA in the presence of chemical substance/The level of expressed mRNA in the absence of chemical substance (yeast gene YCL020W): 1.3
The level of expressed mRNA in the presence of chemical substance/The level of expressed mRNA in the absence of chemical substance (yeast gene YCL027W): 0.8
The level of expressed mRNA in the presence of chemical substance/The level of expressed mRNA in the absence of chemical substance (yeast gene YCR004C): 3.5
The level of expressed mRNA in the presence of chemical substance/ (ratio to absence), gene YCR046C (yeast gene YCR046C, mitochondria-located protein genes, 2 h culture with chemical): 1.0
The level of expressed mRNA in the presence of chemical substance/The level of expressed mRNA in the absence of chemical substance (yeast gene YCR071C): 1.3
The level of expressed mRNA in the presence of chemical substance/ (ratio to absence), gene YCR083W (yeast gene YCR083W, mitochondria-located protein genes, 2 h culture with chemical): 1.3
The level of expressed mRNA in the presence of chemical substance/ (ratio to absence of chemical substance) (yeast gene YCR083W): 1.3
The level of expressed mRNA in the presence of chemical substance/The level of expressed mRNA in the absence of chemical substance (yeast gene YCR088W): 0.9
The level of expressed mRNA in the presence of chemical substance/The level of expressed mRNA in the absence of chemical substance (yeast gene YDL008W): 1.6
The level of expressed mRNA in the presence of chemical substance/ in its absence, gene YDL067C (yeast gene YDL067C, energy system protein genes, 2 h culture with the chemical, ratio to control without chemical): 1.7
The level of expressed mRNA in the presence of chemical substance/ (ratio to absence), gene YDL067C (yeast gene YDL067C, mitochondria-located protein genes, 2 h culture with chemical): 1.7
The level of expressed mRNA in the presence of chemical substance/ in its absence, gene YDL078C (yeast gene YDL078C, energy system protein genes, 2 h culture with the chemical, ratio to control without chemical): 2.0
